Values quoted from earlier work as cited in patent US8933112B2, “Topical liquid to ameliorate pain and promote healing of burn-injured skin” (Memphaceuticals, LLC, priority 2012, dated 2015).

Experiments:
[1] = system: Lewis lung carcinoma cells and CT-26 colon adenocarcinoma cells
[2] = target: T1, nitric-oxide synthase in bovine brain (Bos taurus, UniProt A0A3Q1M6M2)
T1 construct: nitric-oxide synthase in bovine brain; host or cells: bovine brain

human T lymphocytes = details: by blocking Ca2+-sensitive K+ channels
[3] = target: T2, 6-phosphofructo-1-kinase (PFK) (Oryctolagus cuniculus, UniProt P00511); details: independent of anti-calmodulin activity
T2 sequence (P00511 2-780 limits assumed): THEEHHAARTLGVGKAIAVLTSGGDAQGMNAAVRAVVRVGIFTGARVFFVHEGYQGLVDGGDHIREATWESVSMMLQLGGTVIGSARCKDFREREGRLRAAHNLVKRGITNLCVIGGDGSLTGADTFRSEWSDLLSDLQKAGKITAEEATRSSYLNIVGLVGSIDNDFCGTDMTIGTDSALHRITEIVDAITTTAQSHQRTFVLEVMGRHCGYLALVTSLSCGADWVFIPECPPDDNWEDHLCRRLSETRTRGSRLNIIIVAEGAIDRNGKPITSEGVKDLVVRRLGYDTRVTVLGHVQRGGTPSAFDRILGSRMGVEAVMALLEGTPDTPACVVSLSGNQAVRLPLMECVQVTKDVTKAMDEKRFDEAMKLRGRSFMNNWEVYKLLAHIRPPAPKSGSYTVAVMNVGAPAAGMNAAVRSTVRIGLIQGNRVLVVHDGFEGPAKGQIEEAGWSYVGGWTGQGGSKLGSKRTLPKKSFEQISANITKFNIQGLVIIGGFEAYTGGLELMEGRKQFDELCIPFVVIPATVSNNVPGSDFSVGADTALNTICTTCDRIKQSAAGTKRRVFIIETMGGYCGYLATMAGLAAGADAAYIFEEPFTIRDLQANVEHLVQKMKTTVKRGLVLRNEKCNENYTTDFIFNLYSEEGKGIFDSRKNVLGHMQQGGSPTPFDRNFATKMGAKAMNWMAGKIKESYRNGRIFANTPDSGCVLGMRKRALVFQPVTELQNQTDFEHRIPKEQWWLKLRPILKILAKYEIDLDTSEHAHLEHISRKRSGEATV

[4] = system: Ca^2+-dependent K^+ channels of human red blood cells, rat thymocytes, and Ehrlich ascites tumor cells; details: among tioconazole, miconazole, econazole, clotrimazole

T1 sequence (A0A3Q1M6M2 1-1468): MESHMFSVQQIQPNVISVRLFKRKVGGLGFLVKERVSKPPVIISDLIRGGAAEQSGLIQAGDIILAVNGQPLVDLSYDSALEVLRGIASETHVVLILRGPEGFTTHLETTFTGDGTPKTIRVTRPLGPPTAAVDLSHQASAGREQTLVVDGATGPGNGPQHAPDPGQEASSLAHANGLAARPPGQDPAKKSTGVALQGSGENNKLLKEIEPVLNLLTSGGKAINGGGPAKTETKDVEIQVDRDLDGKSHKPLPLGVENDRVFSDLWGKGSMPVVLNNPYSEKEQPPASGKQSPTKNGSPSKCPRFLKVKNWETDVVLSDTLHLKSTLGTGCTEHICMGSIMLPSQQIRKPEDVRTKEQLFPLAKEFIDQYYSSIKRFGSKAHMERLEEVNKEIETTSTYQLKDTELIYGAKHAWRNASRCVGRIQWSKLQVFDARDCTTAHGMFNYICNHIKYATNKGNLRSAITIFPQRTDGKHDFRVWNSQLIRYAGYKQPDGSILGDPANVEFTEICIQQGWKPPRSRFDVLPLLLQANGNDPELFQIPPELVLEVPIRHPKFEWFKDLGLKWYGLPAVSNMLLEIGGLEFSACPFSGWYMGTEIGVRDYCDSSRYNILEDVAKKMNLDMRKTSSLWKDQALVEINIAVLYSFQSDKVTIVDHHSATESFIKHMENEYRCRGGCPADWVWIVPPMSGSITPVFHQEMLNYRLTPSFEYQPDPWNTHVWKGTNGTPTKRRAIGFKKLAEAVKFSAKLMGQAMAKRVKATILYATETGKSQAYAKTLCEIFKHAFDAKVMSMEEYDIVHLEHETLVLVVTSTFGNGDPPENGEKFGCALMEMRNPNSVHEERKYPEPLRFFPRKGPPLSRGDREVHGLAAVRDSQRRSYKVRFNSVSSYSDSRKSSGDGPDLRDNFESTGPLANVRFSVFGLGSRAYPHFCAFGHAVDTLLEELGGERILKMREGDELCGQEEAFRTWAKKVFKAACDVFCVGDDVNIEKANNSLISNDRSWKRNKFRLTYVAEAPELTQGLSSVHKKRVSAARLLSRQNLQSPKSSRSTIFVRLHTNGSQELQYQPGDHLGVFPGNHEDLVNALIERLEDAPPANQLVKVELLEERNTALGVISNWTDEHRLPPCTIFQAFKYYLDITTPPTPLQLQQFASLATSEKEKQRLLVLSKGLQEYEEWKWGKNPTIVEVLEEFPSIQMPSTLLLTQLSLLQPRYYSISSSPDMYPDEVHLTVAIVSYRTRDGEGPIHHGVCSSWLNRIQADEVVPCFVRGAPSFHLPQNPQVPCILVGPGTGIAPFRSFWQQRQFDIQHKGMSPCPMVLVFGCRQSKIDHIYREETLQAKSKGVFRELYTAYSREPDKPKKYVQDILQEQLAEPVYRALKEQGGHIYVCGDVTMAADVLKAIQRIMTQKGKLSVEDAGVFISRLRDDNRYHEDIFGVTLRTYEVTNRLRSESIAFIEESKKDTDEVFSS

citrulline formation by nitric-oxide synthase ([2]; bovine brain): inhibited citrulline formation | inhibition of PFK [3]: directly inhibits
Structure (SMILES): Clc1ccccc1C(c1ccccc1)(c1ccccc1)n1ccnc1 [clotrimazole, 1-(o-chloro-α,α-diphenylbenzyl)imidazole]
levels of glucose 1,6-bisphosphate, fructose 1,6-bisphosphate, ATP, and cell viability [1]: significant reduction | cytochrome-c reductase activity of nitric-oxide synthase ([2]; calmodulin-dependent fashion): inhibited the cytochrome-c reductase activity | activation of human T lymphocytes (human T lymphocytes): inhibits activation | inhibition of Ca2+-dependent K+ channels [4]: most potent inhibitor
